Laboratory results as given in PMC12860872, “Preclinical evaluation of DOTAGA.Glu.(FAPI)2 and DO3A.Glu.(FAPI)2 as theranostics with human dosimetry extrapolation to lutetium-177 and terbium-161 analogs” (European Journal of Nuclear Medicine and Molecular Imaging, 2025).

Test system: PC3-mice
Experiment: Biodistribution in PC3-mice incl. blocking
Format: in vivo, mouse
Conditions: PC3-mice
Summary of the method: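 Male athymic Balb/C nude mice carrying subcutaneous PC3 tumors (3.5 × 10^6 cells, shoulder) used at 250–300 mm^3. After euthanasia with pentobarbital, dissected organs were weighed and gamma-counted. Uptake given as % I.A./g, mean ± SD, n = 3–4.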

[1] = Blocking 4h (20 nmol unlabeled precursor)

N#C[C@@H]1CC(F)(F)CN1C(=O)CNC(=O)c1ccnc2ccc(OCCCCNC(=O)CC[C@H](NC(=O)CN3CCN(CC(=O)[O-])CCN(CC(=O)[O-])CCN(CC(=O)[O-])CC3)C(=O)NCCCCOc3ccc4nccc(C(=O)NCC(=O)N5CC(F)(F)C[C@H]5C#N)c4c3)cc12.[177Lu+3] [[^177Lu]Lu-DO3A.Glu.(FAPI)2]
Uptake in Adrenal (4 h p.i.): 3.7±1 %I.A./g | Uptake in Blood (4 h p.i.): 2.3±0.3 %I.A./g | Uptake in Bone (4 h p.i.): 5.2±0.2 %I.A./g | Uptake in Heart (4 h p.i.): 1.2±0.5 %I.A./g | Uptake in Intestine (4 h p.i.): 0.9±0.4 %I.A./g | Uptake in Kidney (4 h p.i.): 1.5±0.4 %I.A./g | Uptake in Liver (4 h p.i.): 1.7±0.1 %I.A./g | Uptake in Lung (4 h p.i.): 1.6±0.02 %I.A./g | Uptake in Muscle (4 h p.i.): 1.9±0.3 %I.A./g | Uptake in Pancreas (4 h p.i.): 2.3±0.4 %I.A./g | Uptake in Salivary glands (4 h p.i.): 8.2±1.3 %I.A./g | Uptake in Spleen (4 h p.i.): 1.2±0.1 %I.A./g | Uptake in Stomach (4 h p.i.): 0.9±0.2 %I.A./g | Uptake in Tumor (4 h p.i.): 15±1.3 %I.A./g | Uptake in Adrenal (24 h p.i.): 1.5±0.2 %I.A./g | Uptake in Blood (24 h p.i.): 0.9±0.1 %I.A./g | Uptake in Bone (24 h p.i.): 2±0.1 %I.A./g | Uptake in Gallbladder (24 h p.i.): 1.3±0.03 %I.A./g | Uptake in Heart (24 h p.i.): 0.4±0.03 %I.A./g | Uptake in Intestine (24 h p.i.): 0.4±0.1 %I.A./g | Uptake in Kidney (24 h p.i.): 0.9±0.1 %I.A./g | Uptake in Liver (24 h p.i.): 1.7±0.2 %I.A./g | Uptake in Lung (24 h p.i.): 0.6±0.03 %I.A./g | Uptake in Muscle (24 h p.i.): 1±0.1 %I.A./g | Uptake in Pancreas (24 h p.i.): 1±0.05 %I.A./g | Uptake in Salivary glands (24 h p.i.): 3.9±0.3 %I.A./g | Uptake in Spleen (24 h p.i.): 0.8±0.05 %I.A./g | Uptake in Stomach (24 h p.i.): 0.4±0.03 %I.A./g | Uptake in Tumor (24 h p.i.): 7.5±1.2 %I.A./g | Uptake in Adrenal (48 h p.i.): 1.1±0.5 %I.A./g | Uptake in Blood (48 h p.i.): 0.2±0.03 %I.A./g | Uptake in Bone (48 h p.i.): 1±0.1 %I.A./g | Uptake in Gallbladder (48 h p.i.): 0.6±0.1 %I.A./g | Uptake in Heart (48 h p.i.): 0.1±0.01 %I.A./g | Uptake in Intestine (48 h p.i.): 0.1±0.04 %I.A./g | Uptake in Kidney (48 h p.i.): 0.4±0.1 %I.A./g | Uptake in Liver (48 h p.i.): 1.1±0.2 %I.A./g | Uptake in Lung (48 h p.i.): 0.2±0.1 %I.A./g | Uptake in Muscle (48 h p.i.): 0.4±0.04 %I.A./g | Uptake in Pancreas (48 h p.i.): 0.3±0.01 %I.A./g | Uptake in Salivary glands (48 h p.i.): 1.1±0.3 %I.A./g | Uptake in Spleen (48 h p.i.): 0.5±0.05 %I.A./g | Uptake in Stomach (48 h p.i.): 0.2±0.05 %I.A./g | Uptake in Tumor (48 h p.i.): 3.1 ± 0.5 %I.A./g | Uptake in Adrenal (72 h p.i.): 0.3±0.1 %I.A./g | Uptake in Blood (72 h p.i.): 0.06±0 %I.A./g | Uptake in Bone (72 h p.i.): 0.4±0.005 %I.A./g | Uptake in Gallbladder (72 h p.i.): 0.4±0.2 %I.A./g | Uptake in Heart (72 h p.i.): 0.04±0.01 %I.A./g | Uptake in Intestine (72 h p.i.): 0.05±0.01 %I.A./g | Uptake in Kidney (72 h p.i.): 0.2±0.02 %I.A./g | Uptake in Liver (72 h p.i.): 0.8±0.1 %I.A./g | Uptake in Lung (72 h p.i.): 0.1±0.01 %I.A./g | Uptake in Muscle (72 h p.i.): 0.1±0.01 %I.A./g | Uptake in Pancreas (72 h p.i.): 0.1±0.02 %I.A./g | Uptake in Salivary glands (72 h p.i.): 0.3±0.1 %I.A./g | Uptake in Spleen (72 h p.i.): 0.3±0.04 %I.A./g | Uptake in Stomach (72 h p.i.): 0.05±0 %I.A./g | Uptake in Tumor (72 h p.i.): 1.4±0.1 %I.A./g | Uptake in Adrenal (96 h p.i.): 0.2±0.1 %I.A./g | Uptake in Blood (96 h p.i.): 0.02±0.01 %I.A./g | Uptake in Bone (96 h p.i.): 0.3±0.1 %I.A./g | Uptake in Gallbladder (96 h p.i.): 0.1±0.02 %I.A./g | Uptake in Heart (96 h p.i.): 0.02±0.01 %I.A./g | Uptake in Intestine (96 h p.i.): 0.02±0.01 %I.A./g | Uptake in Kidney (96 h p.i.): 0.1±0.01 %I.A./g | Uptake in Liver (96 h p.i.): 0.7±0.1 %I.A./g | Uptake in Lung (96 h p.i.): 0.1±0.1 %I.A./g | Uptake in Muscle (96 h p.i.): 0.04±0 %I.A./g | Uptake in Pancreas (96 h p.i.): 0.03±0.01 %I.A./g | Uptake in Salivary glands (96 h p.i.): 0.1±0.03 %I.A./g | Uptake in Spleen (96 h p.i.): 0.4±0.05 %I.A./g | Uptake in Stomach (96 h p.i.): 0.03±0.01 %I.A./g | Uptake in Tumor (96 h p.i.): 1±0.03 %I.A./g | Uptake in Adrenal [1]: 0.3±0.04 %I.A./g | Uptake in Blood [1]: 0.2±0.04 %I.A./g | Uptake in Bone [1]: 0.4±0.1 %I.A./g | Uptake in Heart [1]: 0.1±0.01 %I.A./g | Uptake in Intestine [1]: 0.4±0.02 %I.A./g | Uptake in Kidney [1]: 2.8±0.2 %I.A./g | Uptake in Liver [1]: 1.1±0.01 %I.A./g | Uptake in Lung [1]: 0.5±0.1 %I.A./g | Uptake in Muscle [1]: 0.1±0.01 %I.A./g | Uptake in Pancreas [1]: 0.1±0.01 %I.A./g | Uptake in Salivary glands [1]: 0.3±0.01 %I.A./g | Uptake in Spleen [1]: 0.4±0.03 %I.A./g | Uptake in Stomach [1]: 0.2±0.1 %I.A./g | Uptake in Tumor [1]: 1.1±0.4 %I.A./g | tumor uptake (at 1 h p.i. as printed): ~ 15 %I.A./g | drop of tumor uptake (washed-out) (at 24 h vs 4 h p.i.): ~ 50%
